Test results: patent US6329523A, “Compounds having a plurality of nitrogenous substitutents” (ISIS Pharmaceuticals, Inc., priority 1999, dated 2001)
≈ marks a conversion by molar mass, not a printed value.

Assays:
Assay type in all cases: cell-based
Streptococcus pyogenes = test: MIC / bacterial growth assay, Streptococcus pyogenes; settings: for inhibition at 100 µM: read-out: inhibition in the S. pyogenes procedure
Experimental: S. pyogenes [American Type Culture Collection (ATCC) #14289] is used in this bacterial growth assay. To initiate the exponential phase of bacterial growth prior to the assay, a sample of bacteria is grown for 6 hours in Todd Hewitt Broth (Difco 0492-17-6) at 37° C. then re-inoculated into fresh media and grown overnight at 37° C. The bacterial cells are collected by centrifugation for 10 minutes at 3200 rpm, diluted and absorbance read at 595 nm. Bacteria diluted in 233 Todd-Hewitt Broth ([…]) are added to the compound mixtures (75 μL) for a total volume of 150 μL. The assays are performed in 96-well microplates with approximately 1×10^4 colony forming units (CFU) per well. The plates are incubated at 37° C. and growth monitored over a 24 hour period by measuring the optical density at 595 nm using a BioRad model 3550 UV microplate reader. The percentage of growth relative to a well containing no compound is determined. Ampicillin and tetracycline antibiotic controls are concurrently tested in each screening assay.
(§1) Compounds are assayed in duplicate at a single dose. Compounds which show inhibitory activity are re-tested in duplicate at multiple doses to determine minimum inhibitory concentration (MIC).

E. coli imp- = test: MIC / bacterial growth assay, E. coli imp-; settings: Escherichia coli
Experimental: The strain E. coli imp- obtained from Spencer Benson (Sampson, B. A., Misra, R. & Benson, S. A., Genetics, 1989, 122, 491-501, Identification and characterization of a new gene of Escherichia coli K-12 involved in outer membrane permeability) is used in this bacterial growth assay. To initiate the exponential phase of bacterial growth prior to the assay, a sample of bacteria is grown for 6 hours in Mueller Hinton II Broth (BBL 12322) at 37° C. then re-inoculated into fresh media and grown overnight at 37° C. The bacterial cells are collected by centrifugation for 10 minutes at 3200 rpm, diluted and absorbance read at 595 nm. Bacteria diluted in 2×Mueller Hinton II Broth (75 μL) are added to the compound mixtures (75μL) for a total volume of 150 μL. The assays are performed in 96-well microplates with approximately 1×10^4 colony forming units (CFU) per well. The plates are incubated at 37° C. and growth monitored over a 24 hour period by measuring the optical density at 595 nm using a BioRad model 3550 UV microplate reader. The percentage of growth relative to a well containing no compound is determined. Ampicillin and tetracycline antibiotic controls are concurrently tested in each screening assay.
as §1

C. albicans = test: antifungal MIC assay, C. albicans; settings: Candida albicans, 24 h; MIC ASSAYS table; unit inferred
Experimental: Yeast diluted in 2×YM Broth (75 μL) are added to the compound mixtures (75 μL) for a total volume of 150 μL. The assays are performed in 96-well microplates with approximately 1×10^4 cells per well. The plates are incubated at 25° C. and growth monitored at 48 hours by visual inspection of yeast growth. Amphotericin B anti-fungal control is concurrently tested in each screening assay.
Compounds are assayed in duplicate at multiple doses to determine minimum inhibitory concentration (MIC).

Structure (SMILES)	inhibition at 100 µM (Streptococcus pyogenes)	inhibition at 100 µM (E. coli imp-; read-out: inhibition in the E. coli procedure)	MIC (Streptococcus pyogenes; 24 h, MIC ASSAYS table, first round or parent libraries, unit inferred, read-out: MIC S. pyrogenes)	MIC (E. coli imp-; 24 h, read-out: MIC E. coli)	MIC (C. albicans)
N=C(N)NCc1cccc(CN(CCNCCCO)Cc2cccc(C(F)(F)F)c2)n1 [Example 142]	95%				
NC(=O)CN(Cc1cccc(C(F)(F)F)c1)Cc1cccc(CN(CCNCCCO)Cc2cccc(C(F)(F)F)c2)n1 [Example 137]	95%	87%			
OCCCN(CCN(Cc1ccccc1)Cc1cccc(CN(Cc2ccccc2)Cc2ccccc2)n1)Cc1ccccc1 [Compound 9, 2-(N,N-dibenzylaminomethylene)-6-{[N1-[benzyl(methyl-1-yl)]-N2-(benzyl)-1-propanol-3-yl]-1,2-diaminoethane}pyridine]			5 to 25 µM (≈ 2.99 to 15 µg/mL)	5 to 25 µM (≈ 2.99 to 15 µg/mL)	1 to 5 µM (≈ 0.599 to 2.99 µg/mL)
